From patent publication US20210371351A1, “MIXTURES COMPRISING AT LEAST TWO DIFFERENT NITRIFICATION INHIBITORS SELECTED FROM 2-(3,4-DIMETHYL-1H-PYRAZOL-1-YL)SUCCINIC ACID (DMPSA), 3,4-DIMETHYL PYRAZOLIUM GLYCOLATE (DMPG) AND OTHER COMPOUNDS” (BASF SE, priority 2017, published 2021)

Legend:
nitrification [1] = assay: Example 3: soil column trial (soil Limburgerhof) with ammonium sulfate, DMPP, DMPSA or DMPP+DMPSA; leaching at 5° C., incubation 10 d or 20 d at 15° C.; NH4-N/NO3-N, % inhibition of NO3-N formation (Böhland), Colby; conditions: 0.05% DMPP, 0.45% DMPSA
Text: The effect on NH4^+ retention and NH4^+ to NO3^− ratios in the soil after fertilization of ammonium sulfate with the addition of DMPP, DMPSA or a combination of DMPP and DMPSA was investigated in column trials simulating climatic conditions of spring time in central Europe. Soil Limburgerhof (pH(CaCl2) 6.8, texture: 73% sand; 24% silt, 3% clay) was filled dry into a glass column with an inner width of 4 cm. At the bottom 0.4 g cotton wool was placed above which a frit (Co. Robu, pore size 1) was placed above which 100 g of 2 mm sieved soil Limburgerhof was layered. The soil height in the column was about 7 cm. Before fertilization the soil was brought to about 60% of its water holding capacity (WHC) be adding 14.4 mL of deionized water. Per column 10 mg NH4—N as ammonium sulfate was fertilized or not (control) together or not with 0.05% DMPP (DMPP obtained from BASF SE), 0.45% DMPSA (DMPSA used as free acid obtained from BASF SE) and 0.05% DMPP plus 0.45% DMPSA (% of nitrification inhibitor w/w of NH4—N). Every treatment was replicated three times.
After fertilization, 50 mL demineralized water was carefully and slowly placed on top of each column which equals about 31 mm precipitation. After 24 h the eluate was collected and by sucking off the soil to bring it back to about 60% of its WHC. All handlings including soil preparation, fertilization and the temperature of the water for both wetting the soil and the artificial precipitation up to the collection of the eluate 24 h after fertilization was performed at 5° C.
(§1) Thereafter, the columns were incubated for 10 d or 20 d at constantly 15° C. in an incubator. After 7 d and 14 d, water was added by weight where needed to bring the soils uniformly to 60% WHC. After 10 d or 20 d, the soil was removed from the columns and extracted with 1% (w/w) K2SO4 solution by shaking for 2 h at room temperature. The filtrated extract was then analyzed for NH4^+ and NO3 colorimetrical by an autoanalyzer.
(§2) To calculate the inhibition of nitrate formation by the nitrification inhibitors during the incubation, the above-mentioned Böhland equation was used. To examine synergistic effects of the combination of DMPP+DMPSA the formula by Colby (Colby, S.R., “Calculating synergistic and antagonistic responses of herbicide Combinations”, Weeds, 15, pp. 20-22, 1967) was used. To determine background levels of NH4+ to NO3−, every treatment was also extracted immediately after fertilization and after leaching prior to the further incubation at 15° C. for 10 d or 20 d.

nitrification [2] = assay: Example 4: soil column trial (soil Limburgerhof), DMPSA and DMPP, other weight ratios; incubation 10 d at 15° C.; % inhibition of NO3-N formation (Böhland), Colby; conditions: 10 days of incubation at 15° C.
Text: The effect on NH4+ retention and NH4+ to NO3− ratios in the soil after fertilization of ammonium sulfate with the addition of DMPP, DMPSA or a combination of DMPP and DMPSA was investigated in column trials simulating climatic conditions of spring time in central Europe. Soil Limburgerhof (pH(CaCl2) 6.8, texture: 73% sand; 24% silt, 3% clay) was filled dry into a glass column with an inner width of 4 cm. At the bottom 0.4 g cotton wool was placed above which a frit (Co. Robu, pore size 1) was placed above which 100 g of 2 mm sieved soil Limburgerhof was layered. The soil height in the column was about 7 cm. Before fertilization the soil was brought to about 60% of its water holding capacity (WHC) be adding 14.4 mL of deionized water. Per column 10 mg NH4—N as ammonium sulfate was fertilized or not (control) together or not with 0.005% or 0.015% DMPP (DMPP obtained from BASF SE), 0.45% DMPSA (DMPSA used as free acid obtained from BASF SE) and […] or 0.015% DMPP plus 0.45% DMPSA (% of nitrification inhibitor w/w of NH4-N). Every treatment was replicated three times. After fertilization, 50 mL demineralized water was carefully and slowly placed on top of each column which equals about 31 mm precipitation. After 24 h the eluate was collected and by sucking off the soil to bring it back to about 60% of its WHC. All handlings including soil preparation, fertilization and the temperature of the water for both wetting the soil and the artificial precipitation up to the collection of the eluate 24 h after fertilization was performed at 5° C.
as §1, with “d” for “d,”, “NH4+” for “NH4^+”, “NO3−” for “NO3”
as §2

[3] = 10 days of incubation at 15° C.
[4] = 20 days of incubation at 15° C.
[5] = 0.015% DMPP, alone or + 0.45% DMPSA

Cc1c[nH]nc1C.O=P(O)(O)O [DMPP, 3,4-dimethyl pyrazole phosphate and/or 4,5-dimethyl pyrazole phosphate]
During incubation: % inhibition of NO3—N formation by NI acc. to Böhland equation (1973) (MV) (nitrification [1]; [3]): 69.8%
Net NI effect % NH4 from fertilized NH4 (MV) (nitrification [1]; [3]): 41.02%
Ratio NH4—N/NO3—N (MV) (nitrification [1]; [3]): 2.86
Soil mg/100 g NH4—N (MV) (nitrification [1]; [3]): 6.58 mg/100 g
Soil mg/100 g NO3—N (MV) (nitrification [1]; [3]): 2.34 mg/100 g
During incubation: % inhibition of NO3—N formation by NI acc. to Böhland equation (1973) (MV) (nitrification [1]; [4]): 14.9%
Net NI effect % NH4 from fertilized NH4 (MV) (nitrification [1]; [4]): 6.67%
Ratio NH4—N/NO3—N (MV) (nitrification [1]; [4]): 0.08
Soil mg/100 g NH4—N (MV) (nitrification [1]; [4]): 0.68 mg/100 g
Soil mg/100 g NO3—N (MV) (nitrification [1]; [4]): 8.60 mg/100 g
During incubation: % inhibition of NO3—N formation by NI acc. to Böhland equation (1973) (MV) (nitrification [2]; 0.005% DMPP, 0.45% DMPSA): −4.6%
Net NI effect % NH4 from fertilized NH4 (MV) (nitrification [2]; 0.005% DMPP, 0.45% DMPSA): 6.22%
Ratio NH4—N/NO3—N (MV) (nitrification [2]; 0.005% DMPP, 0.45% DMPSA): 0.10
Soil mg/100 g NH4—N (MV) (nitrification [2]; 0.005% DMPP, 0.45% DMPSA): 0.65 mg/100 g
Soil mg/100 g NO3—N (MV) (nitrification [2]; 0.005% DMPP, 0.45% DMPSA): 6.94 mg/100 g
During incubation: % inhibition of NO3—N formation by NI acc. to Böhland equation (1973) (MV) (nitrification [2]; [5]): 15.7%
Net NI effect % NH4 from fertilized NH4 (MV) (nitrification [2]; [5]): 11.49%
Ratio NH4—N/NO3—N (MV) (nitrification [2]; [5]): 0.21
Soil mg/100 g NH4—N (MV) (nitrification [2]; [5]): 1.18 mg/100 g
Soil mg/100 g NO3—N (MV) (nitrification [2]; [5]): 5.59 mg/100 g
